# Laboratory results from patent publication US9902736B2, “1-oxo/acylation-14-acylated oridonin derivative, preparation method therefor and application thereof” (HANGZHOU BENSHENG PHARMACEUTICAL CO., LTD., priority 2012, dated 2018).
# Experiments:
# MGC-803 = assay: Solid tumor cell growth inhibition, MTT, 72 h; type: cell-based, human; details: Homo sapiens, MGC-803; 72 h, MTT
# Description: (§1) 6000 well-growing human solid tumor cells were obtained and inoculated into wells of a 96-well cell culture plate. The culture medium was DMEM High Glucose cell culture medium containing 10% fetal bovine serum. The plate was placed in a carbon dioxide cell incubator (5% CO2) at 37° C. and incubated for 24 hours. After added with 1-oxo/acylated-14-acylated oridonin derivatives of different concentration and mixed uniformly, the plate was placed in a carbon dioxide cell incubator (5% CO2) at 37° C. and incubated for 72 hours. Then the viable cell concentration was determined by MTT method.
# CNE = assay: Solid tumor cell growth inhibition, MTT, 72 h; type: cell-based, human; details: Homo sapiens, CNE; 72 h, MTT
# Description: as §1
# Hep-2 = assay: Solid tumor cell growth inhibition, MTT, 72 h; type: cell-based, human; details: Homo sapiens, HEp-2; 72 h, MTT
# Description: as §1
# Hela = assay: Solid tumor cell growth inhibition, MTT, 72 h; type: cell-based, human; details: Homo sapiens, HeLa; 72 h, MTT
# Description: as §1
# K562/ADR = assay: Leukemia cell growth inhibition, MTT, 72 h; type: cell-based; details: Homo sapiens
# Text: (§2) Leukemia cell lines: leukemia cell lines: K562/adr (drug-resistant, chronic myeloid leukemia, CML), NB4 (acute promyelocytic leukemia, AML), Kasumi-1 (acute myeloid leukemia M2 type, AML-M2), Jurkat (acute lymphoblastic leukemia, ALL), all of which were donated by Cancer Research Institute of Zhejiang University, China; and H9 (acute lymphoblastic leukemia, ALL), which was purchased from China Center for Type Culture Collection.
# (§3) 6000 well-growing leukemia cells were obtained and inoculated into wells of a 96-well cell culture plate. […] On the next day, the 1-oxo/acylated-14-acylated oridonin derivatives of different concentrations were added and mixed uniformly. The plate was placed in a carbon dioxide cell incubator (5% CO2) at 37° C. and was incubated for 72 hours. Then the viable cell concentration was determined by MTT method.
# Kasumi-1 = assay: Leukemia cell growth inhibition, MTT, 72 h; type: cell-based; details: Homo sapiens
# Text: as §2, §3
# RPMI 8226 = assay: Multiple myeloma cell growth inhibition, MTT, 72 h; type: cell-based; details: Homo sapiens
# Description: Multiple myeloma cell lines: RPMI8226 (multiple myeloma), purchased from Fuxiang Bio-tech Co. Ltd., Shanghai, China.
# 6000 well-growing cells were obtained and inoculated into wells of a 96-well cell culture plate. […] On the next day, the 1-oxo/acylated-14-acylated oridonin derivatives of different concentrations were added and mixed uniformly. The plate was placed in a carbon dioxide cell incubator (5% CO2) at 37° C. and incubated for 72 hours. Then the viable cell concentration was determined by MTT method.
# A549 = assay: Solid tumor cell growth inhibition, MTT, 72 h; type: cell-based; details: Homo sapiens
# Description: as §1
# SK-OV-3 = assay: Solid tumor cell growth inhibition, MTT, 72 h; type: cell-based; details: Homo sapiens, SK-OV-3, 72 h, MTT; for IC50: read-out: IC50 SK-OV-3; for IC90: read-out: IC90 SK-OV-3
# Description: as §1
# Becap-37 = assay: Solid tumor cell growth inhibition, MTT, 72 h; type: cell-based; details: Homo sapiens
# Description: as §1
# Hep G2 = assay: Solid tumor cell growth inhibition, MTT, 72 h; type: cell-based; details: Homo sapiens, HepG2
# Description: as §1
# RKO = assay: Solid tumor cell growth inhibition, MTT, 72 h; type: cell-based; details: Homo sapiens
# Description: as §1
# PC-3 = assay: Solid tumor cell growth inhibition, MTT, 72 h; type: cell-based; details: Homo sapiens
# Description: as §1
# U87-MG = assay: Solid tumor cell growth inhibition, MTT, 72 h; type: cell-based; details: Homo sapiens, U-87 MG
# Description: as §1
# PANC-1 = assay: Solid tumor cell growth inhibition, MTT, 72 h; type: cell-based; details: Homo sapiens
# Description: as §1
# CaEs-17 = assay: Solid tumor cell growth inhibition, MTT, 72 h; type: cell-based; details: Homo sapiens, CaEs17
# Description: as §1
# MG-63 = assay: Solid tumor cell growth inhibition, MTT, 72 h; type: cell-based; details: Homo sapiens
# Description: as §1
# H9 = assay: Leukemia cell growth inhibition, MTT, 72 h; type: cell-based, human; details: Homo sapiens, H9; 72 h, MTT
# Text: as §2, §3
# Jurkat = assay: Leukemia cell growth inhibition, MTT, 72 h; type: cell-based, human; details: for IC50 / IC90: Homo sapiens, Jurkat, 72 h, MTT
# Text: as §2, §3
# NB4 = assay: Leukemia cell growth inhibition, MTT, 72 h; type: cell-based, human; details: Homo sapiens, NB-4; 72 h, MTT
# Text: as §2, §3
structure (smiles),measurement,setting,value
C=C1C(=O)[C@]23[C@H](OC(=O)c4ccc(Cl)cc4)[C@H]1CC[C@H]2[C@@]12CO[C@@]3(O)[C@@H](O)[C@@H]1C(C)(C)CCC2=O [BS-OR-010],IC50,MGC-803,0.68 mg/L
same,IC90,MGC-803,9.04 mg/L
same,IC50,CNE,1.39 mg/L
same,IC90,CNE,5.94 mg/L
same,IC50,Hep-2,1.8 mg/L
same,IC90,Hep-2,9.11 mg/L
same,IC50,Hela,1.49 mg/L
same,IC90,Hela,5.31 mg/L
same,IC50,K562/ADR,0.44 mg/L
same,IC90,K562/ADR,1.98 mg/L
same,IC50,Kasumi-1,0.57 mg/L
same,IC90,Kasumi-1,1.76 mg/L
same,IC50,RPMI 8226,0.28 mg/L
same,IC90,RPMI 8226,1.78 mg/L
same,IC50,A549,2.83 mg/L
same,IC90,A549,7.29 mg/L
same,IC50,SK-OV-3,1.66 mg/L
same,IC90,SK-OV-3,4.77 mg/L
same,IC50,Becap-37,1.03 mg/L
same,IC90,Becap-37,3.72 mg/L
same,IC50,Hep G2,0.99 mg/L
same,IC90,Hep G2,11.7 mg/L
same,IC50,RKO,0.46 mg/L
same,IC90,RKO,0.95 mg/L
same,IC50,PC-3,1.66 mg/L
same,IC90,PC-3,4.77 mg/L
same,IC50,U87-MG,0.94 mg/L
same,IC90,U87-MG,2.78 mg/L
same,IC50,PANC-1,1.86 mg/L
same,IC90,PANC-1,10.7 mg/L
same,IC50,CaEs-17,1.1 mg/L
same,IC90,CaEs-17,5.51 mg/L
same,IC50,MG-63,0.46 mg/L
same,IC90,MG-63,0.95 mg/L
same,IC50,H9,0.38 mg/L
same,IC90,H9,0.96 mg/L
same,IC50,Jurkat,0.48 mg/L
same,IC90,Jurkat,6.06 mg/L
same,anti-Jurkat cell line activity increased,Jurkat; as compared with oridonin,~4 fold
same,IC50,NB4,0.15 mg/L
same,IC90,NB4,0.95 mg/L
C=C1C(=O)[C@]23[C@H](OC(=O)c4cccnc4)[C@H]1CC[C@H]2[C@@]12CO[C@@]3(O)[C@@H](O)[C@@H]1C(C)(C)CCC2=O [BS-OR-011],IC50,MGC-803,1.6 mg/L
same,IC90,MGC-803,11.9 mg/L
same,IC50,CNE,2.26 mg/L
same,IC90,CNE,8.1 mg/L
same,IC50,Hep-2,3.8 mg/L
same,IC90,Hep-2,14.1 mg/L
same,IC50,Hela,2.53 mg/L
same,IC90,Hela,6.79 mg/L
same,IC50,K562/ADR,0.75 mg/L
same,IC90,K562/ADR,2.35 mg/L
same,IC50,Kasumi-1,1.03 mg/L
same,IC90,Kasumi-1,1.94 mg/L
same,IC50,RPMI 8226,0.9 mg/L
same,IC90,RPMI 8226,1.93 mg/L
same,IC50,A549,5.58 mg/L
same,IC90,A549,9.47 mg/L
same,IC50,SK-OV-3,2.53 mg/L
same,IC90,SK-OV-3,4.87 mg/L
same,IC50,Becap-37,1.96 mg/L
same,IC90,Becap-37,6.11 mg/L
same,IC50,Hep G2,2.53 mg/L
same,IC90,Hep G2,12.6 mg/L
same,IC50,RKO,0.59 mg/L
same,IC90,RKO,1.44 mg/L
same,IC50,PC-3,2.53 mg/L
same,IC90,PC-3,4.87 mg/L
same,IC50,U87-MG,1.17 mg/L
same,IC90,U87-MG,3.29 mg/L
same,IC50,PANC-1,2.99 mg/L
same,IC90,PANC-1,7.92 mg/L
same,IC50,CaEs-17,1.41 mg/L
same,IC90,CaEs-17,5.24 mg/L
same,IC50,MG-63,0.74 mg/L
same,IC90,MG-63,3.01 mg/L
same,IC50,H9,0.56 mg/L
same,IC90,H9,1.23 mg/L
same,IC50,Jurkat,0.87 mg/L
same,IC90,Jurkat,5.24 mg/L
same,IC50,NB4,0.27 mg/L
same,IC90,NB4,0.9 mg/L
C=C1C(=O)[C@]23[C@H](OC(=O)c4ccncc4)[C@H]1CC[C@H]2[C@@]12CO[C@@]3(O)[C@@H](O)[C@@H]1C(C)(C)CCC2=O [BS-OR-012],IC50,MGC-803,1.79 mg/L
same,IC90,MGC-803,3.99 mg/L
same,IC50,CNE,2.47 mg/L
same,IC90,CNE,9.36 mg/L
same,IC50,Hep-2,3.61 mg/L
same,IC90,Hep-2,14.7 mg/L
same,IC50,Hela,2.42 mg/L
same,IC90,Hela,6.3 mg/L
same,IC50,K562/ADR,0.75 mg/L
same,IC90,K562/ADR,3.2 mg/L
same,IC50,Kasumi-1,1.15 mg/L
same,IC90,Kasumi-1,2.39 mg/L
same,IC50,RPMI 8226,0.92 mg/L
same,IC90,RPMI 8226,3.48 mg/L
same,IC50,A549,5.55 mg/L
same,IC90,A549,10.7 mg/L
same,IC50,SK-OV-3,3.48 mg/L
same,IC90,SK-OV-3,7.54 mg/L
same,IC50,Becap-37,2.39 mg/L
same,IC90,Becap-37,6.29 mg/L
same,IC50,Hep G2,3.01 mg/L
same,IC90,Hep G2,16 mg/L
same,IC50,RKO,1.01 mg/L
same,IC90,RKO,1.98 mg/L
same,IC50,PC-3,3.48 mg/L
same,IC90,PC-3,7.54 mg/L
same,IC50,U87-MG,1.88 mg/L
same,IC90,U87-MG,6.17 mg/L
same,IC50,PANC-1,4.11 mg/L
same,IC90,PANC-1,10.2 mg/L
same,IC50,CaEs-17,2.01 mg/L
same,IC90,CaEs-17,10 mg/L
same,IC50,MG-63,0.99 mg/L
same,IC90,MG-63,3.84 mg/L
same,IC50,H9,0.75 mg/L
same,IC90,H9,1.99 mg/L
same,IC50,Jurkat,0.99 mg/L
same,IC90,Jurkat,5.77 mg/L
same,IC50,NB4,0.32 mg/L
same,IC90,NB4,1.3 mg/L
C=C1C(=O)[C@]23[C@H](OC(=O)c4ccc(OC)c(OC)c4)[C@H]1CC[C@H]2[C@@]12CO[C@@]3(O)[C@@H](O)[C@@H]1C(C)(C)CCC2=O [BS-OR-015],IC50,MGC-803,0.84 mg/L
same,IC90,MGC-803,4.68 mg/L
same,IC50,CNE,1.05 mg/L
same,IC90,CNE,4.05 mg/L
same,IC50,Hep-2,1.12 mg/L
same,IC90,Hep-2,5.05 mg/L
same,IC50,Hela,1.53 mg/L
same,IC90,Hela,3.75 mg/L
same,IC50,K562/ADR,0.51 mg/L
same,IC90,K562/ADR,1.97 mg/L
same,IC50,Kasumi-1,0.51 mg/L
same,IC90,Kasumi-1,1.15 mg/L
same,IC50,RPMI 8226,0.3 mg/L
same,IC90,RPMI 8226,1.85 mg/L
same,IC50,A549,2.38 mg/L
same,IC90,A549,5.33 mg/L
same,IC50,SK-OV-3,1.66 mg/L
same,IC90,SK-OV-3,3.04 mg/L
same,IC50,Becap-37,0.99 mg/L
same,IC90,Becap-37,3.17 mg/L
same,IC50,Hep G2,0.94 mg/L
same,IC90,Hep G2,5.47 mg/L
same,IC50,RKO,0.42 mg/L
same,IC90,RKO,0.94 mg/L
same,IC50,PC-3,1.66 mg/L
same,IC90,PC-3,3.04 mg/L
same,IC50,U87-MG,0.87 mg/L
same,IC90,U87-MG,2.41 mg/L
same,IC50,PANC-1,1.88 mg/L
same,IC90,PANC-1,9.81 mg/L
same,IC50,CaEs-17,0.95 mg/L
same,IC90,CaEs-17,3.05 mg/L
same,IC50,MG-63,0.4 mg/L
same,IC90,MG-63,0.96 mg/L
same,IC50,H9,0.45 mg/L
same,IC90,H9,1.82 mg/L
same,IC50,Jurkat,0.69 mg/L
same,IC90,Jurkat,2.31 mg/L
same,IC50,NB4,0.11 mg/L
same,IC90,NB4,0.43 mg/L
